In brackets after ≈: the same amount, converted by molar mass.

The subject of assay [1] is mAb 1A5. Briefly: icELISA with mAb 1A5 (hybridoma supernatant), coating antigen imidacloprid-OVA. The class given is binding, mouse. The procedure: (§1) Procedures for the immunization, cell fusion and clone selection were similar to those described in our previous publications, and indirect non-competitive and competitive ELISAs were sequentially used for hybridoma screening. The generated mAb was purified by protein G from the ascitic fluid and then stored at −20 °C for further analysis. A mouse antibody isotyping kit was used to determine the isotypes of the mAbs.
(§2) Checkerboard titration was carried out by icELISAs with serial dilutions of the antibody and coating antigen (imidacloprid-OVA). […] The specificity and sensitivity were determined by icELISAs. Briefly, the mixture of standards with different concentrations and equal volume of antibody was added into the reaction wells of pre-coated plates. Standard curves were fitted into a four-parameter logarithmic equation: Y = A2 + [(A1 − A2)/1 + (X/X0)^p], and the half-maximal inhibitory concentration (IC50, defined as the assay sensitivity, was used to calculate cross-reactivity rate(CR).
(§3) Moreover, sensitivity (IC50) and CR to eight neonicotinoids were assessed by icELISAs.

For assay [2], the system named is mAb 4B1. Kind of assay: icELISA with mAb 4B1 (hybridoma supernatant), coating antigen imidacloprid-OVA. The class given is binding, mouse. The procedure:
as §1, §2, §3

In assay [3] the test system is mAb 5C3. Briefly: icELISA with mAb 5C3 (hybridoma supernatant), coating antigen imidacloprid-OVA. The class given is binding, mouse. The procedure: as §1, §2, §3
In assay [4] the test system is mAb 6F11. Kind of assay: icELISA with mAb 6F11 (hybridoma supernatant), coating antigen imidacloprid-OVA. In kind it is binding, mouse. As for the experimental part:
as §1, §2, §3

In assay [5] the test system is 6F11-mAb. Briefly: icELISA with purified 6F11-mAb. The class given is binding, mouse. Conditions: 6F11-mAb. As for the experimental part: as §1, §2
(§4) Under the optimal working concentrations of 10 µg/mL for imidacloprid-OVA, icELISAs with high sensitivity to neonicotinoid pesticides and metabolites were established.

Assay [6] relates to 6F11-rAb. Kind of assay: icELISA with full-length recombinant 6F11-rAb. The class given is binding, mouse. The procedure: Transient production in the HEK 293F suspension cells was performed as described. Briefly, cells were prepared with viable cell density around 1.5 × 10^6 cells/mL and viability above 95 % in 180 mL serum-free culture medium in 500 mL Nunc Erlenmeyer flasks and incubated at 37 °C in 5% CO2 atmosphere and shaken at 130 rpm in an orbital shaker for 2 h. A total of 90 μg of the plasmids (VH:VL = 2:3) mixed with transfection reagent were pre-warmed for 15 min and then transiently transfected into HEK 293F. After 5 days of incubation, the supernatant was collected and purified by protein G. The size of the purified full-length rAb was identified by SDS-PAGE.
as §2, §4

Assay [7] relates to 6F11-rAb. Kind of assay: GNIS (gold lateral-flow immunosensing strip) assay based on 6F11-rAb. The class given is binding, mouse. From the text: The preparation method for the conjugate of rAb-gold nanoparticles was based on a previous report. A colloid gold lateral-flow immunosensing strip consisted of three pads (glass fiber membrane, NC membrane and absorption membrane) using a one-sided adhesive polyvinyl chloride sheet as a support. The prepared imidaclothiz-OVA conjugate and goat anti-mouse IgG antibody were immobilized onto the NC membrane as the test line (T line) and control line (C line), respectively. For analysis, standard solutions at different concentrations were added to the 96-well microtiter plate, and then the strip was inserted into the well. After 15 min, the signal was observed using a portable reader (Helmen, Suzhou, China). Standard curves were gained by plotting the signal ratio of the T line to the C line (T/C) against the analyte concentration, and they were also fitted into the four-parameter logarithmic equation.
The 6F11-rAb was used to establish a rapid and reliable GNIS assay, and the limit detection of T-line disappearance was 5 ng/mL for imidacloprid, clothianidin and imidaclothiz and over 100 ng/mL for thiacloprid, acetamiprid and nitenpyram, judged by normal visual detection (Figure 5). […] Therefore, imidacloprid, clothianidin and imidaclothiz, with better sensitivity, were further determined by spiking experiment.

In assay [8] the test system is positive hybridoma clones. Briefly: Dual-target icELISA hybridoma screening. Conditions: analyte at 1 µg/mL, nine clones. The class given is binding, mouse. As for the experimental part: as §1
After cell fusion and the primary screening by non-competitive ELISAs, 37 positive wells of hybridomas giving the absorbance values higher than 0.5 were picked out and filled with fresh culture medium. On the next day, they were quickly rechecked by icELISAs to qualitatively test the ability of recognizing both imidacloprid and acetamiprid. […] Therefore, the top four broad-specific clones were selected and screened with imidacloprid and acetamiprid until stable hybridoma lines were obtained. Then the culture supernatants were collected for characterization of the four kinds of broad-specific mAbs.

The test system of assay [9] is anti-imidaclothiz mAb. Further details: method as in PMID 21299253. Particulars: anti-imidaclothiz mAb-based ELISA; cited from earlier work. For orientation: ELISA stands for enzyme-linked immunosorbent assay.
[10] abbreviates: cross-reactivity relative to imidacloprid.

In general, IC50 refers to the concentration needed to halve the response being measured. On to `O=[N+]([O-])NC1=NCCN1Cc1ccc(Cl)nc1` [Imidacloprid, imidacloprid], for which the CR in assay [1] (mAb 1A5, cross-reactivity relative to imidacloprid) was found to be 100.0%; in [2] (mAb 4B1, cross-reactivity relative to imidacloprid), 100.0%; in assay [3] (mAb 5C3, cross-reactivity relative to imidacloprid) it was 100.0%; in [4] (mAb 6F11, cross-reactivity relative to imidacloprid), 100.0%; in assay [5] (setting [10]), 100.0%; in [6] (setting [10]) it was 100.0%. In addition, the half-inhibitory concentration (IC50) worked out at 1.14 ng/mL in assay [1] (mAb 1A5, hybridoma supernatant, icELISA); 2.90 ng/mL in assay [2] (mAb 4B1, hybridoma supernatant, icELISA); 0.24 ng/mL in assay [3] (mAb 5C3, hybridoma supernatant, icELISA); 0.59 ng/mL in [4] (mAb 6F11, hybridoma supernatant, icELISA); 0.27 ng/mL in [5] (imidacloprid-OVA 10 µg/mL); 0.36 ng/mL in assay [6] (imidacloprid-OVA 10 µg/mL). The molecule further displayed an IC50 in assay [7] (with a strip reader) of 0.9 ng/mL (≈ 3.52 nM). In assay [7] (normal visual detection), the “limit detection of T-line disappearance (visual detection limit)” value worked out at 5 ng/mL. The inhibition rate in [8] is on record as greater than 50%. Further, the cross-reactivity in [9] is reported as 91.7%.

The values are drawn from article PMC9496258, “Trace Immunosensing of Multiple Neonicotinoid Insecticides by a Novel Broad-Specific Antibody Obtained from a Rational Screening Strategy” (Biosensors, 2022).
